Assay results from patent publication US4871730A, “Cephem compounds” (Fujisawa Pharmaceutical Co., Ltd., priority 1983, dated 1989).
In brackets after ≈: the same amount, converted by molar mass.

tested on: Escherichia coli 31; assay: Minimal inhibitory concentration (MIC), in vitro antibacterial activity by two-fold agar-plate dilution method; assay type: cell-based; conditions: heart infusion agar, 37° C, 20 hours
Method: In vitro antibacterial activity was determined by the two-fold agar-plate dilution method as described below.
One loopful of an overnight culture of each test strain in trypticase-soy broth (10^8 viable cells per ml) was streaked on heart infusion agar (HI-agar) containing graded concentrations of representative test compounds, and the minimal inhibitory concentration (MIC) was expressed in terms of μg/ml after incubation at 37° C for 20 hours.

SMILES | MIC [mg/L]
CO/N=C(\C(=O)NC1C(=O)N2C(C(=O)[O-])=C(S/C=C\c3ccc[n+](C)c3)CSC12)c1csc(N)n1 (stereo not drawn) [Test compound (1), 7-[2-(2-Aminothiazol-4-yl)-2-methoxyiminoacetamido]-3-[(Z)-2-(1-methyl-3-pyridinio)-vinylthio]-3-cephem-4-carboxylate (syn isomer)] | < 0.025
CO/N=C(\C(=O)NC1C(=O)N2C(C(=O)O)=C(S/C=C\c3cccnc3)CSC12)c1csc(N)n1 (stereo not drawn) [Test compound (2), 7-[2-(2-Aminothiazol-4-yl)-2-methoxyimino-acetamido]-3-[(Z)-2-(3-pyridyl)vinylthio]-3-cephem-4-carboxylic acid (syn isomer)] | < 0.025
C=CCO/N=C(\C(=O)NC1C(=O)N2C(C(=O)O)=C(S/C=C\c3cccnc3)CSC12)c1nsc(N)n1 (stereo not drawn) [Test compound (3), 7-[2-Allyloxyimino-2-(5-amino-1,2,4-thiadiazol-3-yl)acetamido]-3-[(Z)-2-(3-pyridyl)vinylthio]-3-cephem-4-carboxylic acid (syn isomer)] | 0.05 (≈ 0.0916 µM)
CCO/N=C(\C(=O)NC1C(=O)N2C(C(=O)[O-])=C(S/C=C\c3ccc[n+](C)c3)CSC12)c1csc(N)n1 (stereo not drawn) [Test compound (4), 7-[2-(2-Aminothiazol-4-yl)-2-ethoxyiminoacetamido]3-[(Z)-2-(1-methyl-3-piridinio)vinylthio]-3-cephem-4-carboxylate (syn isomer)] | < 0.025
